Data published in patent US6479435B1, “Diaryl ethers and processes for their preparation and herbicidal and desiccant compositions containing them” (ISK Americas Incorporated, priority 1997, dated 2002).

What was measured:
Type in all cases: in vivo
[1] = tested on: common ragweed (Ambrosia artemisiifolia L., AMBEL); assay: Post-emerge greenhouse herbicide test, phytotoxicity rating; details: 500 g al/ha, 14 days after application
How it was run: (§1)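 Scores use a 0 (no damage) to 100 (complete kill) scale, taken 14 days after a foliar spray. Acetone solutions with 0.25% v/v non-ionic surfactant were applied by track sprayer at 187 l/ha and 63-1000 g ai/ha to bottom-watered 2-3 leaf plants.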

[2] = tested on: upland rice (Oryza sp., var.Tebonnet, RICE); assay: Pre-emerge greenhouse test, crop damage rating; details: 500 g ai/ha, 14 days after application, rating scale 0-100
How it was run: (§2)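 Visual 0–100 injury rating (100 = all plants dead) taken 14 days after treatment. Rates of 125–1000 g ai/ha in acetone, 187 l/ha, were sprayed onto soil one day post-sowing; pots were surface-watered to incorporate, then bottom-watered.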

[3] = tested on: field corn (Zea mays L., var. Dekalb 535, CORN); assay: Pre-emerge greenhouse test, crop damage rating; details: 500 g ai/ha, 14 days after application, rating scale 0-100
How it was run: as §2

[4] = tested on: lambsquarters (Chenopodium album, CHEAL); assay: Post-emerge greenhouse herbicide test, phytotoxicity rating; details: 500 g al/ha, 14 days after application
How it was run: as §1

[5] = tested on: barnyardgrass (Echinochloa crusgalli, ECHCG); assay: as above; details: 500 g al/ha, 14 days after application
How it was run: as §1

[6] = tested on: ivyleaf morningglory (Ipomoea hederacea, IPOHE); assay: as above; details: 500 g al/ha, 14 days after application
How it was run: as §1

[7] = tested on: velvetleaf (Abutilon theophrasti, ABUTH); assay: as above; details: 500 g al/ha, 14 days after application
How it was run: as §1

[8] = tested on: green foxtail (Setaria viridis, SETVI); assay: as above; details: 500 g al/ha, 14 days after application
How it was run: as §1

[9] = tested on: large crabgrass (Digitaria sanguinalis, DIGSA); assay: as above; details: 500 g al/ha, 14 days after application
How it was run: as §1

[10] = tested on: Johnsongrass (Sorghum halepense, SORHA); assay: as above; details: 500 g al/ha, 14 days after application
How it was run: as §1

[11] = tested on: redroot pigweed (Amaranthus retroflexus, AMARE); assay: as above; details: 500 g al/ha, 14 days after application
How it was run: as §1

[12] = tested on: lambsquarters (Chenopodium album, CHEAL); assay: Pre-emerge greenhouse herbicide test, phytotoxicity rating; details: 500 g ai/ha, 14 days after application, rating scale 0-100
How it was run: as §2

[13] = tested on: common ragweed (Ambrosia artemisiifolia L., AMBEL); assay: as above; details: 500 g ai/ha, 14 days after application, rating scale 0-100
How it was run: as §2

[14] = tested on: barnyardgrass (Echinochloa crusgalli, ECHCG); assay: as above; details: 500 g ai/ha, 14 days after application, rating scale 0-100
How it was run: as §2

[15] = tested on: ivyleaf morningglory (Ipomoea hederacea, IPOHE); assay: as above; details: 500 g ai/ha, 14 days after application, rating scale 0-100
How it was run: as §2

[16] = tested on: velvetleaf (Abutilon theophrasti, ABUTH); assay: as above; details: 500 g ai/ha, 14 days after application, rating scale 0-100
How it was run: as §2

[17] = tested on: green foxtail (Setaria viridis, SETVI); assay: as above; details: 500 g ai/ha, 14 days after application, rating scale 0-100
How it was run: as §2

[18] = tested on: large crabgrass (Digitaria sanguinalis, DIGSA); assay: as above; details: 500 g ai/ha, 14 days after application, rating scale 0-100
How it was run: as §2

[19] = tested on: Johnsongrass (Sorghum halepense, SORHA); assay: as above; details: 500 g ai/ha, 14 days after application, rating scale 0-100
How it was run: as §2

[20] = tested on: redroot pigweed (Amaranthus retroflexus, AMARE); assay: as above; details: 500 g ai/ha, 14 days after application, rating scale 0-100
How it was run: as §2

[21] = tested on: sicklepod (Cassia obtusifolia, CASOB); assay: as above; details: 500 g ai/ha, 14 days after application, rating scale 0-100
How it was run: as §2

[22] = tested on: upland rice (Oryza sp., var.Tebonnet, RICE); assay: Post-emerge greenhouse test, crop damage rating; details: 500 g al/ha, 14 days after application
How it was run: as §1

[23] = tested on: field corn (Zea mays L., var. Dekalb 535, CORN); assay: Post-emerge greenhouse test, crop damage rating; details: 500 g al/ha, 14 days after application
How it was run: as §1

[24] = tested on: soybean (Glycine max L., var. Pella 86, SOY); assay: Post-emerge greenhouse test, crop damage rating; details: 500 g al/ha, 14 days after application
How it was run: as §1

[25] = tested on: soybean (Glycine max L., var. Pella 86, SOY); assay: Pre-emerge greenhouse test, crop damage rating; details: 500 g ai/ha, 14 days after application, rating scale 0-100
How it was run: as §2

Cn1nc(-c2cc(Oc3ncccc3[N+](=O)[O-])c(Cl)cc2F)c(Cl)c1C(F)(F)F [Compound 1-1]
AMBEL phytotoxicity rating (0-100) [1]: 100
crop damage rating RICE [2]: 20
crop damage rating CORN [3]: 20
CHEAL phytotoxicity rating (0-100) [4]: 100
ECHCG phytotoxicity rating (0-100) [5]: 100
IPOHE phytotoxicity rating (0-100) [6]: 100
ABUTH phytotoxicity rating (0-100) [7]: 100
SETVI phytotoxicity rating (0-100) [8]: 100
DIGSA phytotoxicity rating (0-100) [9]: 95
SORHA phytotoxicity rating (0-100) [10]: 90
AMARE phytotoxicity rating (0-100) [11]: 100
phytotoxicity rating CHEAL [12]: 100
phytotoxicity rating AMBEL [13]: 50
phytotoxicity rating ECHCG [14]: 50
phytotoxicity rating IPOHE [15]: 10
phytotoxicity rating ABUTH [16]: 60
phytotoxicity rating SETVI [17]: 100
phytotoxicity rating DIGSA [18]: 90
phytotoxicity rating SORHA [19]: 70
phytotoxicity rating AMARE [20]: 100
phytotoxicity rating CASOB [21]: 20
RICE crop damage rating (0-100) [22]: 90
CORN crop damage rating (0-100) [23]: 60
SOY crop damage rating (0-100) [24]: 100
crop damage rating SOY [25]: 10
